Patent US11026426B2, “Oxadiazole and phenol derivatives as antibacterial and/or herbicidal agents” (NORTHERN ILLINOIS RESEARCH FOUNDATION, priority 2017, dated 2021)
Read-outs that look alike come from different tables or passages of the source.

What was measured:
[1] = target: Arabidopsis thaliana IspD (Arabidopsis thaliana, UniProt P69834); settings: read-out: AtIspD IC50, cited from earlier work
[2] = system: Micrococcus luteus; experiment: Antibacterial preliminary screening ML; assay type: cell-based; settings: score 0-3; note: key: 0 represents no inhibition; 3 is comparable to commercial antibiotic control
[3] = target: Lycopersicon esculentum IspE (LeIspE) (Solanum lycopersicum, UniProt P93841); experiment: Thermal shift assay against LeIspE; assay type: binding
[4] = system: Corynebacterium xerosis; experiment: Antibacterial preliminary screening CX; assay type: cell-based; settings: score 0-3; note: key: 0 represents no inhibition; 3 is comparable to commercial antibiotic control
[5] = system: Escherichia coli; experiment: Antibacterial preliminary screening EC; assay type: cell-based; settings: score 0-3; note: key: 0 represents no inhibition; 3 is comparable to commercial antibiotic control
[6] = target: LeIspE (Solanum lycopersicum, UniProt P93841); experiment: University of Hamburg photometric enzymatic inhibition assay LeIspE; assay type: biochemical, Lycopersicon esculentum; settings: read-out: LeIspE IC50
In short: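 Photometric coupled assay with pyruvate kinase/lactate dehydrogenase following NADH (460 μM). Mix: 100 mM Tris-HCl pH 8.0, 10 mM MgCl2, 1 mM DTT, 2.5 mM phosphoenolpyruvate, 2 mM ATP, 1 mM 4-diphosphocytidyl-2-C-methylerythritol, 1.1% DMSO, 2.4 mU IspE; incubated at 27° C.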

[7] = target: IspD of Mycobacterium paratuburculosis (Mycolicibacterium paratuberculosis, UniProt Q743W5); experiment: STD-NMR fragment screening MpIspD; assay type: binding; settings: Fragments of Life library screening
[8] = system: Pseudomonas aeruginosa; experiment: Antibacterial preliminary screening PA; assay type: cell-based; settings: for PA score: score 0-3
[9] = target: T1, Mycobacterium tuberculosis IspD (MtIspD) (Mycobacterium tuberculosis, UniProt P9WKG9); experiment: Thermal shift assay against MtIspD; assay type: binding
T1 sequence (P9WKG9 1-231): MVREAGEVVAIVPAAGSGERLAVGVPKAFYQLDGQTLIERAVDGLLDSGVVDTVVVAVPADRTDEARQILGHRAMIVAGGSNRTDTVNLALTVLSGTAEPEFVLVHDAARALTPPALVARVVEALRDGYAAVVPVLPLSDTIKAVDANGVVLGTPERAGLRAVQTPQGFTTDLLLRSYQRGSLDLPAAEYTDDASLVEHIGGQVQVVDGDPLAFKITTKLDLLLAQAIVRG

[10] = system: Klebsiella pneumonia; experiment: Antibacterial preliminary screening KP; assay type: cell-based; settings: score 0-3; note: key: 0 represents no inhibition; 3 is comparable to commercial antibiotic control
[11] = system: lettuce seeds; experiment: Lettuce leaf assay; assay type: in vivo; set-up: key: 0 (no effect); 5(complete inhibition or bleaching); settings: ranking 0-5
In short: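 Qualitative assay: compounds in volatile organic solvent applied to filter paper in a petri dish, solvent evaporated, lettuce seeds and 5 mL water added to give test concentrations. Germination, root development and leaf bleaching scored days 3 and 4, ranked 0 (no effect) to 5 (complete inhibition or bleaching).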

[12] = system: Bacillus cereus; experiment: Antibacterial preliminary screening BC; assay type: cell-based; settings: score 0-3; note: key: 0 represents no inhibition; 3 is comparable to commercial antibiotic control
[13] = system: Corynebacterium pseudodiphtheriae; experiment: Antibacterial preliminary screening CP; assay type: cell-based; settings: score 0-3;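 note: 0 is no inhibition and 3 matches the commercial antibiotic control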
[14] = target: Mycobacterium paratuberculosis IspD (MpIspD) (Mycolicibacterium paratuberculosis, UniProt Q743W5); experiment: Thermal shift assay against MpIspD; assay type: binding
[15] = system: Burkholderia thailandensis; assay type: cell-based; settings: preliminary screening, score 0-3
[16] = system: Mycobacterium smegmatis; experiment: Antibacterial preliminary screening MS; assay type: cell-based; settings: score 0-3; note: key: 0 represents no inhibition; 3 is comparable to commercial antibiotic control
[17] = target: AtIspF (Arabidopsis thaliana, UniProt Q9CAK8); experiment: University of Hamburg photometric enzymatic inhibition assay AtIspF; assay type: biochemical; settings: read-out: AtIspF IC50
In short: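 Coupled photometric assay (CMP kinase/pyruvate kinase/lactate dehydrogenase, NADH consumption) with 2.4 mU AtIspF and 1 mM 4-diphosphocytidyl-2C-methylerythritol 2-phosphate, 2 mM ATP, in 100 mM Tris-HCl pH 8.0, 10 mM MgCl2, 1.1% DMSO. Monitored at 27 °C.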

[18] = system: IspE of Mycobacterium abscessus; experiment: STD-NMR fragment screening MaIspE; assay type: binding; settings: Fragments of Life library screening
[19] = target: AtIspD (Arabidopsis thaliana, UniProt P69834); experiment: University of Hamburg photometric enzymatic inhibition assay AtIspD; assay type: biochemical; settings: read-out: AtIspD IC50
In short: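 Coupled photometric assay: 2.4 mU AtIspD with 1 mM (2R,3S)-2,3-dihydroxy-4-oxopentyl phosphate, 2.1 mM CTP, excess IspE (0.4 U), ATP, pyruvate kinase/lactate dehydrogenase and 460 μM NADH. Run in 100 mM Tris-HCl pH 8.0, 10 mM MgCl2, 1 mM DTT, 1.1% DMSO at 27 °C, monitored photometrically.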

[20] = system: Burkholderia thailandensis; assay type: cell-based
[21] = system: Micrococcus luteus; experiment: Antibacterial assay zone of inhibition Ml; assay type: cell-based
[22] = system: Escherichia coli; experiment: Antibacterial assay zone of inhibition Ec; assay type: cell-based
[23] = system: Klebsiella pneumonia; experiment: Antibacterial assay zone of inhibition Kp; assay type: cell-based
[24] = target: T2, Bt IspE (Burkholderia thailandensis, UniProt Q2T1B6); experiment: biochemical
[25] = target: Ec IspE (Escherichia coli, UniProt P62615); experiment: Kinase-Glo luminescent enzymatic assay Ec IspE; assay type: biochemical
[26] = target: T2, Bt IspE; experiment: ITC binding study with Bt IspE
Experimental: All ITC experiments were performed under the same conditions as described herein. Compounds were dissolved in DMSO and brought to concentration with the dialysis buffer, with a maximum DMSO concentration of 10% by volume which was matched between ligand and enzyme, and centrifuged at 10,000 RPM for 10 minutes. The dialysis buffer was used for all sample dilutions to ensure buffers matching between the titrant and titrate, thus minimizing the excess heat due to buffer mismatch. ITC experiments were performed with IspE in the cell and ligand in the syringe. The initial injection volume was 2 μL (omitted) followed by 27 10 μL injections, every 240 seconds. Samples were run at 25° C., at pH 7.4, with a stirring speed of 307 RPM. Dilution runs were performed to allow determination of background heats caused by solution mismatch and instrument noise. Dilution runs were performed with ligand (at the same concentration as in the experiment run) in the syringe titrated into the dialysis buffer in the cell. Data were fit using OriginPro 7 with the ITC add-on by the manufacturer.

[27] = system: Corynebacterium pseudodiphtheriae; experiment: Antibacterial assay zone of inhibition Cp; assay type: cell-based
[28] = system: Corynebacterium xerosis; experiment: Antibacterial assay zone of inhibition Cx; assay type: cell-based
[29] = system: Pseudomonas aeruginosa; experiment: Antibacterial assay zone of inhibition Pa; assay type: cell-based
[30] = system: Bacillus cereus; experiment: Antibacterial assay zone of inhibition Bc; assay type: cell-based
[31] = system: Mycobacterium smegmatis; experiment: Antibacterial assay zone of inhibition Ms; assay type: cell-based
[32] = target: P. falciparum IspD (Plasmodium falciparum, UniProt Q8I273); experiment: IspD assay (Washington University, EnzCheck phosphate) PfIspD; assay type: biochemical
[33] = target: E. coli IspD (Escherichia coli, UniProt Q46893); experiment: IspD assay (Washington University, EnzCheck phosphate) EcIspD; assay type: biochemical; settings: up to 100 μM; bar graph at 12.5 and 100 μM
Experimental: Compounds were tested against IspD from Escherichia coli and Plasmodium falciparum. The assay measured activity through monitoring phosphate levels released by IspD enzyme over time using conditions published previously. The assay utilized the EnzCheck phosphate assay kit to quantify phosphate released by IspD. Reactions were done in a 96-well plate with each well containing a final volume of 50 μL. Concentrations of reagents were as follows: 100 mM NaCl, 25 mM Tris at pH 7.0, 7.5 mM MgCl2, 1 mM dithiothreitol, 1 U/mL purine nucleoside phosphorylase, and 0.1 U/mL yeast inorganic pyrophosphatase, 50 μM CTP, 500 μM MEP, 0.1% DMSO, and 0.2 mM 2-Amino-6-mercapto-7-methyl puring riboside. Reactions with EclspD used 2 nM EclspD and reactions with PfIspD used 50 nM PfIspD. Reactions involved pre-warming the enzyme and buffers to 37° C. with different inhibitor concentrations followed by the addition of the purified MEP substrate. Absorbance was measured at 360 nm over time and values were used to create regression analysis curves from three trials and values were converted to (μM MEP)(μM enzyme)^−1s^−1 using a standard phosphate curve. These values were then used to identify percent activity compared to enzyme activity without the inhibitor. Results are indicated.

Sequence of Lycopersicon esculentum IspE (LeIspE) (P93841 89-401): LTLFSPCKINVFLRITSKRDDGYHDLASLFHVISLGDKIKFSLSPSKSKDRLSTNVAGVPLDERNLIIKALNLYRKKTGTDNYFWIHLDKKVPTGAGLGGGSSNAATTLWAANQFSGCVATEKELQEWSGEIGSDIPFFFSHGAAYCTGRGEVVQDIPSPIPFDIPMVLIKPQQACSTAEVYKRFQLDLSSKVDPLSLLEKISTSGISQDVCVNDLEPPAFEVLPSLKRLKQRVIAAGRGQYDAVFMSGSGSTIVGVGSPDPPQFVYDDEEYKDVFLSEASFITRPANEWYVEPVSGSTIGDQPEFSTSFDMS
Sequence of LeIspE (P93841 89-401): as above
Sequence of AtIspD (P69834 62-302): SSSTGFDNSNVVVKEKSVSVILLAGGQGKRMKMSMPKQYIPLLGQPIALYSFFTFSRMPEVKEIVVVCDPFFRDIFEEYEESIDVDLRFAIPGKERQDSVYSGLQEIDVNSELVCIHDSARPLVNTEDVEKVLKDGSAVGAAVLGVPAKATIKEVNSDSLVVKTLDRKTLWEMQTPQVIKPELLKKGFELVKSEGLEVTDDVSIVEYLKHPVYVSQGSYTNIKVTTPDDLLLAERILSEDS
T2 sequence (Q2T1B6 whole entry): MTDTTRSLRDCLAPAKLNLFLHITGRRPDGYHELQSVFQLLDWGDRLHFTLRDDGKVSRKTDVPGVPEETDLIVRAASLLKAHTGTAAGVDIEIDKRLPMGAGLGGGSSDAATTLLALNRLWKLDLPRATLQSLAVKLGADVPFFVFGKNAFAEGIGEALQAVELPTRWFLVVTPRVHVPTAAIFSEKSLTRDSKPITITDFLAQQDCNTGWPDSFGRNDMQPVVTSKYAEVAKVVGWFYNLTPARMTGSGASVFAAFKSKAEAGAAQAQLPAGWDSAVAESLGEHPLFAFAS
Sequence of AtIspF (Q9CAK8 53-231): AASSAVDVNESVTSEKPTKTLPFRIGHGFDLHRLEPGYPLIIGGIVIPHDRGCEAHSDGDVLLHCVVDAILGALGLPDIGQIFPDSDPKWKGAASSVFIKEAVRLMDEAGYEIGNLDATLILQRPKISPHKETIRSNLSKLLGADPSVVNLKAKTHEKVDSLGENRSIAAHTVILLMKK
Sequence of Arabidopsis thaliana IspD (P69834 62-302): as the sequence (P69834 62-302) above
Sequence of E. coli IspD (Q46893 whole entry): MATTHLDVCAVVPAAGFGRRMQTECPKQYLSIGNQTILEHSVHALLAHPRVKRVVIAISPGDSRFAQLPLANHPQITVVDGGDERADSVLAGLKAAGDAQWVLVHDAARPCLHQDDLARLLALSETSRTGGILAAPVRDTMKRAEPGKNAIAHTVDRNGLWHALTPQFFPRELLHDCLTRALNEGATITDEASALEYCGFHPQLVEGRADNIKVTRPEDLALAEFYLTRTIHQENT
Sequence of P. falciparum IspD (Q8I273 entry or part of it): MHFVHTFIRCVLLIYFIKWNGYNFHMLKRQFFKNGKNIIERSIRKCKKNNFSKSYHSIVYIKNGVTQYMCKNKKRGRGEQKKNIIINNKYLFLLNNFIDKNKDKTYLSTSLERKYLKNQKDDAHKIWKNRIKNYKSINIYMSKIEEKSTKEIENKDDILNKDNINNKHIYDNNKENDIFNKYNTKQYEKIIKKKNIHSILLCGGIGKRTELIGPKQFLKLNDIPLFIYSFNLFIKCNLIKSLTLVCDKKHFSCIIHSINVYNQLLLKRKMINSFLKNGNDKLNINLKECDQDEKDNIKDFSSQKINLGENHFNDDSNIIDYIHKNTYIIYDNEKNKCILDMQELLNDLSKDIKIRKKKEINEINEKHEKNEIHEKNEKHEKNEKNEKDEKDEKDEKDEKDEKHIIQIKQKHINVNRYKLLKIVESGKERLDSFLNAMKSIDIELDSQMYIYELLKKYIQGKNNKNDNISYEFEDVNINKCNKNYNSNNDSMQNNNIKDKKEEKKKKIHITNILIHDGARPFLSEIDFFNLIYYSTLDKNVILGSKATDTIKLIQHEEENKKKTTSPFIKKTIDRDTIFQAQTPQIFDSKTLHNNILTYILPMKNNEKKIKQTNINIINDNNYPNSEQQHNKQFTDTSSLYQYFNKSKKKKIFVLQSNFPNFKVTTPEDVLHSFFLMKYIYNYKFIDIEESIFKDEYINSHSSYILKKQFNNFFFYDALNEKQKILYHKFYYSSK
Sequence of Mycobacterium paratuberculosis IspD (MpIspD) (Q743W5 whole entry): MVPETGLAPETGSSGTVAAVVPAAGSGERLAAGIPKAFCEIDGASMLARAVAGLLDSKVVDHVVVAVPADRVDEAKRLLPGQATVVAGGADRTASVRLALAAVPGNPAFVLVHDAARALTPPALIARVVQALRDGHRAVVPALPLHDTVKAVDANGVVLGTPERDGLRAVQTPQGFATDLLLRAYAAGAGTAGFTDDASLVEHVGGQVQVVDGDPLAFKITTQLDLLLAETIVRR
Sequence of IspD of Mycobacterium paratuburculosis (Q743W5 whole entry, the tested form may be a part): as the sequence (Q743W5 whole entry) above
Sequence of Ec IspE (P62615 whole entry): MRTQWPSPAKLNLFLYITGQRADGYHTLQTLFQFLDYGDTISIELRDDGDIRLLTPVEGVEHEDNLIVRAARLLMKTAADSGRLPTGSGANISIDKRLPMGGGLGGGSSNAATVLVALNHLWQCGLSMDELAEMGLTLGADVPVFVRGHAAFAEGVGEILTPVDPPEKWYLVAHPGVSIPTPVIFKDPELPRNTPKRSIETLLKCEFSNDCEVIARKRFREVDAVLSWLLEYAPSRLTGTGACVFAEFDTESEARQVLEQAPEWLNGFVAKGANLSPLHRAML

Oc1c(Br)cc(Br)cc1-c1[nH]c(Br)c(Br)c1Br [pentabromopseudilin]
IC50 ([1]; with 40 μM Cd2+ added): 1.4 ± 0.2 µM | IC50 ([1]; without a metal added): 13 ± 2 µM

c1ccc2[nH]c(-c3nnco3)cc2c1 [HGN-207, 2-(1H-indol-2-yl)-1,3,4-oxadiazole]
ML score [2]: 0 | LeIspE melting point change [3]: −1.25 °C | LeIspE melting temp [3]: 48.25 °C | CX score [4]: 0 | EC score [5]: 0 | IC50 [6]: > 1000 µM | STD-NMR binding to MpIspD [7]: bound | PA score [8]: 0 | MtIspD melting point change [9]: 1.5 °C | MtIspD melting temp [9]: 49.5 °C | KP score [10]: 0 | Bleaching ([11]; 0.5 mM): 2 | Germination ([11]; 0.5 mM): 2 | Root Dev. ([11]; 0.5 mM): 0 | Bleaching ([11]; 1.0 mM): 3 | Germination ([11]; 1.0 mM): 2 | Root Dev. ([11]; 1.0 mM): 0 | BC score [12]: 0 | CP score [13]: 0 | MpIspD thermal shift (positive shift) [14]: 0.8 °C | BT score [15]: 0 | MS score [16]: 0 | IC50 [17]: > 1000 µM | STD-NMR binding to MaIspE [18]: bound | IC50 [19]: > 1000 µM | melting point: 205 to 207 °C

Clc1ccc(OCc2nnc(-c3nc4ccccc4s3)o2)c(Cl)c1 [HGN-333, 2-(benzo[d]thiazol-2-yl)-5-((2,4-dichlorophenoxy)methyl)-1,3,4-oxadiazole]
ML score [2]: 0 | LeIspE melting point change [3]: −1.75 °C | LeIspE melting temp [3]: 47.75 °C | Antibacterial Bt zone of inhibition ([20]; 0.1 mM): 0 millimeters | Antibacterial Bt zone of inhibition ([20]; 0.5 mM): 15 millimeters | Antibacterial Bt zone of inhibition ([20]; 1 mM): 19 millimeters | CX score [4]: 0 | Antibacterial Ml zone of inhibition ([21]; 0.1 mM): 0 millimeters | Antibacterial Ml zone of inhibition ([21]; 0.5 mM): 0 millimeters | Antibacterial Ml zone of inhibition ([21]; 1 mM): 0 millimeters | Antibacterial Ec zone of inhibition ([22]; 0.1 mM): 0 millimeters | Antibacterial Ec zone of inhibition ([22]; 0.5 mM): 0 millimeters | Antibacterial Ec zone of inhibition ([22]; 1 mM): 0 millimeters | EC score [5]: 0 | IC50 [6]: 31 µM | Antibacterial Kp zone of inhibition ([23]; 0.1 mM): 0 millimeters | Antibacterial Kp zone of inhibition ([23]; 0.5 mM): 0 millimeters | Antibacterial Kp zone of inhibition ([23]; 1 mM): 0 millimeters | IC50 [24]: 28 µM | effectiveness against Pseudomonas aeruginosa [8]: moderately effective | PA score [8]: 2 | IC50 [25]: 3 µM | KD app (ITC, words) [26]: in the nanomolar range | binding stoichiometry (ITC) [26]: 0.903 | ΔH° (ITC) [26]: -8.6 kcal/mol | −TΔS (ITC) [26]: -17.8 kcal/mol | entropic contribution −TΔS (ITC) ([26]; b178, unit not given): −17.8 | MtIspD melting point change [9]: 1.3 °C | MtIspD melting temp [9]: 49.3 °C | Antibacterial Cp zone of inhibition ([27]; 0.1 mM): 0 millimeters | Antibacterial Cp zone of inhibition ([27]; 0.5 mM): 0 millimeters | Antibacterial Cp zone of inhibition ([27]; 1 mM): 0 millimeters | Antibacterial Cx zone of inhibition ([28]; 0.1 mM): 0 millimeters | Antibacterial Cx zone of inhibition ([28]; 0.5 mM): 0 millimeters | Antibacterial Cx zone of inhibition ([28]; 1 mM): 0 millimeters | Antibacterial Pa zone of inhibition ([29]; 0.1 mM): 0 millimeters | Antibacterial Pa zone of inhibition ([29]; 0.5 mM): 18 millimeters | Antibacterial Pa zone of inhibition ([29]; 1 mM): 25 millimeters | KP score [10]: 0 | Antibacterial Bc zone of inhibition ([30]; 0.1 mM): 0 millimeters | Antibacterial Bc zone of inhibition ([30]; 0.5 mM): 0 millimeters | Antibacterial Bc zone of inhibition ([30]; 1 mM): 12.5 millimeters | Bleaching ([11]; 0.15 mM): 0 | Germination ([11]; 0.15 mM): 0 | Root Dev. ([11]; 0.15 mM): 0 | Bleaching ([11]; 0.3 mM): 0 | Germination ([11]; 0.3 mM): 0 | Root Dev. ([11]; 0.3 mM): 0 | BC score [12]: 0 | CP score [13]: 0 | BT score [15]: 0 | MS score [16]: 0 | IC50 [17]: 291 µM | IC50 [19]: 151 µM | melting point: 163 to 165 °C | Antibacterial Ms zone of inhibition ([31]; 0.1 mM): 0 millimeters | Antibacterial Ms zone of inhibition ([31]; 0.5 mM): 0 millimeters | Antibacterial Ms zone of inhibition ([31]; 1 mM): 0 millimeters

Clc1ccc(-c2nnc(-c3cc4ccccc4[nH]3)o2)cc1 [HGN-213, 2-(4-chlorophenyl)-5-(1H-indol-2-yl)-1,3,4-oxadiazole]
ML score [2]: 0 | LeIspE melting point change [3]: −2.00 °C | LeIspE melting temp [3]: 47.50 °C | CX score [4]: 0 | IC50 [32]: ~100 µM | EC score [5]: 0 | IC50 [6]: 326 ± 29 µM | PA score [8]: 0 | MtIspD melting point change [9]: 0.8 °C | MtIspD melting temp [9]: 48.8 °C | KP score [10]: 0 | Bleaching ([11]; 0.2 mM): 0 | Germination ([11]; 0.2 mM): 1 | Root Dev. ([11]; 0.2 mM): 0 | BC score [12]: 0 | CP score [13]: 0 | BT score [15]: 0 | MS score [16]: 0 | IC50 [17]: > 1000 µM | inhibition of E. coli IspD activity [33]: some activity | IC50 [19]: 490 µM | melting point: 265 to 270 °C
